In ChEMBL document CHEMBL6177993, “De Novo 3-(Phenylcarbamoyl) Benzoate Analogues: Efficacy against Multidrug-Resistant S. aureus and Elucidation of the Biodistribution Profile” (J Med Chem, 2025):
In brackets after ≈: the same amount, converted by molar mass. Activity calls are given as the source filed them. No cut-off for these calls is given here.

Legend:
Staphylococcus aureus [1] = test: Antibacterial activity against methicillin-sensitive Staphylococcus aureus ATCC 29213 assessed as reduction in bacterial growth measured after 18 to 24 hrs by broth microdilution method; type: functional; details: time 18-24 hrs
Staphylococcus aureus [2] = test: Antibacterial activity against methicillin-resistant Staphylococcus aureus NRS 100 assessed as reduction in bacterial growth measured after 18 to 24 hrs by broth microdilution method; type: functional; details: time 18-24 hrs
Staphylococcus aureus [3] = test: Antibacterial activity against methicillin-resistant Staphylococcus aureus NRS 119 assessed as reduction in bacterial growth measured after 18 to 24 hrs by broth microdilution method; type: functional; details: time 18-24 hrs
Staphylococcus aureus [4] = test: Antibacterial activity against methicillin-resistant Staphylococcus aureus NRS 129 assessed as reduction in bacterial growth measured after 18 to 24 hrs by broth microdilution method; type: functional; details: time 18-24 hrs
Staphylococcus aureus [5] = test: Antibacterial activity against methicillin-resistant Staphylococcus aureus NRS 186 assessed as reduction in bacterial growth measured after 18 to 24 hrs by broth microdilution method; type: functional; details: time 18-24 hrs
Staphylococcus aureus [6] = test: Antibacterial activity against methicillin-resistant Staphylococcus aureus NRS 191 assessed as reduction in bacterial growth measured after 18 to 24 hrs by broth microdilution method; type: functional; details: time 18-24 hrs
Staphylococcus aureus [7] = test: Antibacterial activity against methicillin-resistant Staphylococcus aureus NRS 192 assessed as reduction in bacterial growth measured after 18 to 24 hrs by broth microdilution method; type: functional; details: time 18-24 hrs
Staphylococcus aureus [8] = test: Antibacterial activity against methicillin-resistant Staphylococcus aureus NRS 193 assessed as reduction in bacterial growth measured after 18 to 24 hrs by broth microdilution method; type: functional; details: time 18-24 hrs
Staphylococcus aureus [9] = test: Antibacterial activity against methicillin-resistant Staphylococcus aureus NRS 194 assessed as reduction in bacterial growth measured after 18 to 24 hrs by broth microdilution method; type: functional; details: time 18-24 hrs
Staphylococcus aureus [10] = test: Antibacterial activity against methicillin-resistant Staphylococcus aureus NRS 198 assessed as reduction in bacterial growth measured after 18 to 24 hrs by broth microdilution method; type: functional; details: time 18-24 hrs
Staphylococcus aureus [11] = test: Antibacterial activity against vacomycin-resistant Staphylococcus aureus VRS 1 assessed as reduction in bacterial growth measured after 18 to 24 hrs by broth microdilution method; type: functional; details: time 18-24 hrs
Staphylococcus aureus [12] = test: Antibacterial activity against vacomycin-resistant Staphylococcus aureus VRS 4 assessed as reduction in bacterial growth measured after 18 to 24 hrs by broth microdilution method; type: functional; details: time 18-24 hrs
Staphylococcus aureus [13] = test: Antibacterial activity against vacomycin-resistant Staphylococcus aureus VRS 12 assessed as reduction in bacterial growth measured after 18 to 24 hrs by broth microdilution method; type: functional; details: time 18-24 hrs
Staphylococcus aureus [14] = test: Antibacterial activity against Staphylococcus aureus assessed as reduction in bacterial growth; type: functional
Staphylococcus aureus [15] = test: Drug resistance, ratio of MIC for Staphylococcus aureus ATCC 29213 after 20 passages exposure to MIC for Staphylococcus aureus ATCC 29213 during first exposure; type: functional
Staphylococcus aureus [16] = test: Bactericidal activity against Staphylococcus aureus ATCC 29213 at 4 to 8 time MIC measured after 8 hrs by time-kill assay; type: functional, organism-based
Staphylococcus aureus [17] = test: Induction of morphological changes in Staphylococcus aureus ATCC 29213 assessed as cell shrinkage at 10 times MIC measured after 4 hrs by atomic force microscopy based analysis (reference value: 60.170 nanometer); type: functional
Enterococcus faecalis = test: Antibacterial activity against Enterococcus faecalis ATCC 35550 assessed as reduction in bacterial growth measured after 18 to 24 hrs by broth microdilution method; type: functional; details: time 18-24 hrs
Bacillus subtilis = test: Antibacterial activity against Bacillus subtilis IITKSM1 assessed as reduction in bacterial growth measured after 18 to 24 hrs by broth microdilution method; type: functional; details: time 18-24 hrs
Staphylococcus aureus [18] = test: Antibacterial activity against Staphylococcus aureus ATCC 29213 assessed as reduction in bacterial growth measured after 18 to 24 hrs by broth microdilution method; type: functional; details: time 18-24 hrs
Klebsiella pneumoniae = test: Antibacterial activity against Klebsiella pneumoniae BAA 1705 assessed as reduction in bacterial growth measured after 18 to 24 hrs by broth microdilution method; type: functional; details: time 18-24 hrs
Acinetobacter baumannii = test: Antibacterial activity against Acinetobacter baumannii BAA 1605 assessed as reduction in bacterial growth measured after 18 to 24 hrs by broth microdilution method; type: functional; details: time 18-24 hrs
Pseudomonas aeruginosa = test: Antibacterial activity against Pseudomonas aeruginosa ATCC 27853 assessed as reduction in bacterial growth measured after 18 to 24 hrs by broth microdilution method; type: functional; details: time 18-24 hrs
Escherichia coli = test: Antibacterial activity against Escherichia coli ATCC 25922 assessed as reduction in bacterial growth measured after 18 to 24 hrs by broth microdilution method; type: functional; details: time 18-24 hrs
Staphylococcus aureus [19] = test: Inhibition of biofilm in Staphylococcus aureus ATCC 29213 at 1 times MIC measured after 12 hrs by crystal violet staining based analysis relative to control; type: functional
Staphylococcus aureus [20] = test: Inhibition of biofilm in Staphylococcus aureus ATCC 29213 at 0.5 times MIC measured after 12 hrs by crystal violet staining based analysis relative to control; type: functional
Staphylococcus aureus [21] = test: Inhibition of biofilm in Staphylococcus aureus ATCC 29213 at 2 times MIC measured after 12 hrs by crystal violet staining based analysis relative to control; type: functional
Staphylococcus aureus [22] = test: Inhibition of biofilm in Staphylococcus aureus ATCC 29213 at 2 ug/ml measured after 12 hrs by crystal violet staining based analysis; type: functional, organism-based; details: dose 2.0 µg/ml

Compound	MIC (Staphylococcus aureus [1]) [µg/mL]	MIC (Staphylococcus aureus [2]) [µg/mL]	MIC (Staphylococcus aureus [3]) [µg/mL]	MIC (Staphylococcus aureus [4]) [µg/mL]	MIC (Staphylococcus aureus [5]) [µg/mL]	MIC (Staphylococcus aureus [6]) [µg/mL]	MIC (Staphylococcus aureus [7]) [µg/mL]	MIC (Staphylococcus aureus [8]) [µg/mL]	MIC (Staphylococcus aureus [9]) [µg/mL]	MIC (Staphylococcus aureus [10]) [µg/mL]	MIC (Staphylococcus aureus [11]) [µg/mL]	MIC (Staphylococcus aureus [12]) [µg/mL]	MIC (Staphylococcus aureus [13]) [µg/mL]	MIC (Staphylococcus aureus [14]) [µg/mL]	other results
CN(C)c1ccc(O)c2c1C[C@H]1C[C@H]3[C@H](N(C)C)C(O)=C(C(N)=O)C(=O)[C@@]3(O)C(O)=C1C2=O [MINOCYCLINE]	0.25 (≈ 0.546 µM)	> 64	> 64	8 (≈ 17.5 µM)	8 (≈ 17.5 µM)	64 (≈ 140 µM)	32 (≈ 69.9 µM)	> 64	2 (≈ 4.37 µM)	64 (≈ 140 µM)	> 64	> 64	16 (≈ 35 µM)		
N=C(N)NCCC[C@H](NC(=O)[C@H](CCCNC(=N)N)NC(=O)[C@H](CCCNC(=N)N)NC(=O)Cn1cc(COc2ccccc2-c2ccc(-c3ccc(-c4ccccc4OCc4cn(CC(=O)N[C@@H](CCCNC(=N)N)C(=O)N[C@@H](CCCNC(=N)N)C(=O)N[C@@H](CCCNC(=N)N)C(N)=O)nn4)cc3)cc2)nn1)C(N)=O														6.05 (≈ 3.9 µM)	
CCn1cc(C(=O)O)c(=O)c2cc(F)c(N3CCNCC3)cc21 [NORFLOXACIN]															Ratio (Staphylococcus aureus [15]): 64
CN[C@H](CC(C)C)C(=O)N[C@H]1C(=O)N[C@@H](CC(N)=O)C(=O)N[C@H]2C(=O)N[C@H]3C(=O)N[C@H](C(=O)N[C@H](C(=O)O)c4cc(O)cc(O)c4-c4cc3ccc4O)[C@H](O)c3ccc(c(Cl)c3)Oc3cc2cc(c3O[C@@H]2O[C@H](CO)[C@@H](O)[C@H](O)[C@H]2O[C@H]2C[C@](C)(N)[C@H](O)[C@H](C)O2)Oc2ccc(cc2Cl)[C@H]1O [VANCOMYCIN]											> 64	> 64	> 64		Activity (Staphylococcus aureus [16]): Active
CC1(C)S[C@@H]2[C@H](NC(=O)[C@H](N)c3ccccc3)C(=O)N2[C@H]1C(=O)O [AMPICILLIN]															Activity (Staphylococcus aureus [17]): 36.075 nm
O=C(Nc1ccccc1)c1cc(Cl)ccc1O														≥ 2.47	
COc1ccc2c(c[n+]3c4c2ccc2c5c(cc(c24)CC3)OCO5)c1NC(=O)c1csnn1.[Cl-]														2	
C#CCOc1ccccc1-c1ccc(-c2ccc(-c3ccccc3OCc3cn(CC(=O)N[C@@H](CCCNC(=N)N)C(=O)N[C@@H](CCCNC(=N)N)C(=O)N[C@@H](CCCNC(=N)N)C(N)=O)nn3)cc2)cc1														3.83 (≈ 3.9 µM)	
C[C@H]1COc2c(N3CCN(C)CC3)c(F)cc3c(=O)c(C(=O)O)cn1c23 [LEVOFLOXACIN ANHYDROUS]	0.25 (≈ 0.692 µM)	0.25 (≈ 0.692 µM)	16 (≈ 44.3 µM)	0.25 (≈ 0.692 µM)	4 (≈ 11.1 µM)	16 (≈ 44.3 µM)	8 (≈ 22.1 µM)	32 (≈ 88.6 µM)	0.125 (≈ 0.346 µM)	32 (≈ 88.6 µM)	32 (≈ 88.6 µM)	> 64	32 (≈ 88.6 µM)		
O=C(O)c1cccc(C(=O)Nc2c(C(c3ccccc3)c3ccccc3)cc(Cl)cc2C(c2ccccc2)c2ccccc2)c1	4 (≈ 6.58 µM)	4 (≈ 6.58 µM)	4 (≈ 6.58 µM)	4 (≈ 6.58 µM)	4 (≈ 6.58 µM)	4 (≈ 6.58 µM)	4 (≈ 6.58 µM)	8 (≈ 13.2 µM)	8 (≈ 13.2 µM)	8 (≈ 13.2 µM)	4 (≈ 6.58 µM)	4 (≈ 6.58 µM)	4 (≈ 6.58 µM)		MIC (Enterococcus faecalis): 1 µg/mL (≈ 1.64 µM); MIC (Bacillus subtilis): 2 µg/mL (≈ 3.29 µM); MIC (Staphylococcus aureus [18]): 2 µg/mL (≈ 3.29 µM); MIC (Klebsiella pneumoniae): > 64 µg/mL; MIC (Acinetobacter baumannii): > 64 µg/mL; MIC (Pseudomonas aeruginosa): > 64 µg/mL; MIC (Escherichia coli): > 64 µg/mL; inhibition (INH) (Staphylococcus aureus [19]): 96%; inhibition (INH) (Staphylococcus aureus [20]): >50%; inhibition (INH) (Staphylococcus aureus [21]): 95%; inhibition (Staphylococcus aureus [22]): Active
NCCCC[C@H](N)C(=O)N[C@@H](Cc1ccccc1)CN(CC(=O)NCC12CC3CC(CC(C3)C1)C2)C(=O)CC12CC3CC(CC(C3)C1)C2														1.56 (≈ 2.36 µM)	
CC(C)(C)c1cc(C(c2ccc(F)cc2)c2ccc(F)cc2)c(NC(=O)c2cccc(C(=O)O)c2)c(C(c2ccc(F)cc2)c2ccc(F)cc2)c1	2 (≈ 2.85 µM)	2 (≈ 2.85 µM)	2 (≈ 2.85 µM)	2 (≈ 2.85 µM)	2 (≈ 2.85 µM)	2 (≈ 2.85 µM)	2 (≈ 2.85 µM)	2 (≈ 2.85 µM)	2 (≈ 2.85 µM)	2 (≈ 2.85 µM)	2 (≈ 2.85 µM)	2 (≈ 2.85 µM)	2 (≈ 2.85 µM)		MIC (Enterococcus faecalis): 1 µg/mL (≈ 1.42 µM); MIC (Bacillus subtilis): 1 µg/mL (≈ 1.42 µM); MIC (Staphylococcus aureus [18]): 2 µg/mL (≈ 2.85 µM); MIC (Klebsiella pneumoniae): > 64 µg/mL; MIC (Acinetobacter baumannii): > 64 µg/mL; MIC (Pseudomonas aeruginosa): > 64 µg/mL; MIC (Escherichia coli): > 64 µg/mL; inhibition (INH) (Staphylococcus aureus [19]): 95%; inhibition (INH) (Staphylococcus aureus [20]): >50%; inhibition (INH) (Staphylococcus aureus [21]): 95%; inhibition (Staphylococcus aureus [22]): Active
